Measured values taken from ChEMBL document CHEMBL4351028, “Benzoyl indoles with metabolic stability as reversal agents for ABCG2-mediated multidrug resistance” (Eur J Med Chem, 2019).
Activity calls are given as the source filed them. The rule behind the calls is not given here.

Assays:
[1] = target: T1, ABCG2 (Homo sapiens, UniProt Q9UNQ0); assay: Competitive substrate activity at ABCG2 (unknown origin) expressed in High Five insect cell vesicle membrane assessed as stimulation of ATPase activity at 0.75 uM by PREDEASY ATPase assay relative to control; details: High Five insect cell vesicle membranes expressing ABCG2
T1 sequence (Q9UNQ0 whole entry): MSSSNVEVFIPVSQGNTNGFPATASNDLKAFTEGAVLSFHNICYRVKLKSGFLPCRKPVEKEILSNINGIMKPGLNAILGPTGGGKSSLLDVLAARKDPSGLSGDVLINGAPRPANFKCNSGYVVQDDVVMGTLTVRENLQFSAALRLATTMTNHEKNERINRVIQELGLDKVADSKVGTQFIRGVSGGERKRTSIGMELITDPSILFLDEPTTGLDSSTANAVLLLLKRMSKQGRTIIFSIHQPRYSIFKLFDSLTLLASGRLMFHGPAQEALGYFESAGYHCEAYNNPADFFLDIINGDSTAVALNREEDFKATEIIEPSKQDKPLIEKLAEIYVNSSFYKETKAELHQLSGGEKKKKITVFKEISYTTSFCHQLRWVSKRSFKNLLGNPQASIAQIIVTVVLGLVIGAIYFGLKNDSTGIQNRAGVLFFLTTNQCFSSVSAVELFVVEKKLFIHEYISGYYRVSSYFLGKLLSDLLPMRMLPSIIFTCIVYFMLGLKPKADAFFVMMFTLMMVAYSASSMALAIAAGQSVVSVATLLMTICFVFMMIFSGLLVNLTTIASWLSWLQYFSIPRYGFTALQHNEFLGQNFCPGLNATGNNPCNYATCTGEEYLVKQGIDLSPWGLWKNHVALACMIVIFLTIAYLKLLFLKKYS

[2] = target: T2, Broad substrate specificity ATP-binding cassette transporter ABCG2 (Homo sapiens, UniProt Q9UNQ0); assay: Reversal of ABCG2-mediated multidrug resistance in human S1-M1-80 cells assessed as potentiation of mitoxantrone-induced cytotoxicity at 5 uM pretreated with compound for 2 hrs followed by mitoxantrone challenge for 44 hrs by MTT assay; assay type: cell-based
T2 sequence (Q9UNQ0 whole entry): T1 sequence (Q9UNQ0 whole entry)

[3] = Cytotoxicity against human NCI-H460/MX20 cells assessed as inhibition of cell viability incubated for 2 hrs by MTT assay; assay type: cell-based; details: NCI-H460/MX20, 2 h
[4] = target: T2, Broad substrate specificity ATP-binding cassette transporter ABCG2; assay: Competitive substrate activity at ABCG2 (unknown origin) expressed in High Five insect cell vesicle membrane assessed as stimulation of ATPase activity by PREDEASY ATPase assay
[5] = target: T2, Broad substrate specificity ATP-binding cassette transporter ABCG2; assay: Competitive substrate activity at ABCG2 (unknown origin) expressed in High Five insect cell vesicle membrane assessed as stimulation of ATPase activity up to 40 uM by PREDEASY ATPase assay relative to control
[6] = tested on: NCI-H460; assay: Cytotoxicity against human NCI-H460 cells assessed as inhibition of cell viability incubated for 2 hrs by MTT assay; assay type: cell-based; details: NCI-H460, 2 h, read-out: IC50
[7] = target: T2, Broad substrate specificity ATP-binding cassette transporter ABCG2; assay: Reversal of ABCG2 (unknown origin) expressed in HEK293 cells-mediated multidrug resistance assessed as potentiation of mitoxantrone-induced cytotoxicity at 2.5 to 5 uM pretreated for 2 hrs followed by mitoxantrone addition and measured after 44 hrs by MTT assay; assay type: cell-based; details: hek293, 44 h
[8] = species on record: Homo sapiens; assay: Effect on ABCG2 internalization in human NCI-H460/MX20 cells at 5 uM incubated for 72 hrs by immunofluorescence analysis; assay type: functional, cell-based
[9] = Cytotoxicity against human NCI-H460/MX20 cells assessed as inhibition of cell viability at 5 to 25 uM incubated for 2 hrs by MTT assay relative to control; assay type: cell-based; details: read-out: INH
[10] = species on record: Homo sapiens; assay: Effect on ABCG2 expression in human NCI-H460/MX20 cells at 5 uM incubated up to 72 hrs by Western blot analysis; assay type: functional, cell-based
[11] = target: T2, Broad substrate specificity ATP-binding cassette transporter ABCG2; assay: (§1) Reversal of ABCG2-mediated multidrug resistance in human NCI-H460/MX20 cells assessed as potentiation of mitoxantrone-induced cytotoxicity by measuring inhibition of cell proliferation at 10 uM pretreated for 2 hrs followed by mitoxantrone addition and measured after 44 hrs by MTT assay (reference value: 24 +/- 3%); assay type: cell-based
[12] = Cytotoxicity against human S1-M1-80 cells assessed as inhibition of cell viability at 5 to 25 uM incubated for 2 hrs by MTT assay relative to control; assay type: cell-based; details: read-out: INH
[13] = tested on: HEK293; assay: Reversal of ABCG2 482-T7 mutant (unknown origin) expressed in HEK293 cells-mediated multidrug resistance assessed as potentiation of mitoxantrone-induced cytotoxicity at 2.5 to 5 uM pretreated for 2 hrs followed by mitoxantrone addition and measured after 44 hrs by MTT assay; assay type: cell-based; details: Homo sapiens
[14] = Cytotoxicity against human S1 cells assessed as inhibition of cell viability at 5 to 25 uM incubated for 2 hrs by MTT assay relative to control; assay type: cell-based; details: read-out: INH
[15] = Cytotoxicity against HEK293 cells harbouring ABCG2-482-G2 mutant assessed as inhibition of cell viability at 5 to 25 uM incubated for 2 hrs by MTT assay relative to control; assay type: ADME, cell-based; details: human, read-out: INH
[16] = target: T2, Broad substrate specificity ATP-binding cassette transporter ABCG2; assay: Reversal of ABCG2-mediated multidrug resistance in human S1-M1-80 cells assessed as potentiation of doxorubicin-induced cytotoxicity at 5 uM pretreated with compound for 2 hrs followed by doxorubicin challenge for 44 hrs by MTT assay; assay type: cell-based
[17] = Cytotoxicity against HEK293 cells transfected with pcDNA3.1 assessed as inhibition of cell viability at 5 to 25 uM incubated for 2 by MTT assay relative to control; assay type: cell-based; details: human, read-out: INH
[18] = Cytotoxicity against human NCI-H460 cells assessed as inhibition of cell viability at 5 to 25 uM incubated for 2 hrs by MTT assay relative to control; assay type: cell-based; details: read-out: INH
[19] = Cytotoxicity against human NCI-H460/MX20 cells assessed as concentration that causes inhibition of cell viability by <=20% incubated for 24 hrs by MTT assay; assay type: cell-based
[20] = target: T2, Broad substrate specificity ATP-binding cassette transporter ABCG2; assay: Reversal of ABCG2-mediated multidrug resistance in human NCI-H460/MX20 cells assessed as potentiation of mitoxantrone-induced cytotoxicity by measuring inhibition of cell proliferation pretreated for 2 hrs followed by mitoxantrone addition and measured after 44 hrs by MTT assay; assay type: cell-based
[21] = tested on: NCI-H460; assay: Cytotoxicity against human NCI-H460 cells assessed as concentration that causes inhibition of cell viability by <=20% incubated for 24 hrs by MTT assay; assay type: cell-based; details: nci-h460, 24 h
[22] = target: T2, Broad substrate specificity ATP-binding cassette transporter ABCG2; assay: Reversal of ABCG2-mediated multidrug resistance in human NCI-H460/MX20 cells assessed as cisplatin-induced cytotoxicity at 5 uM pretreated with compound for 2 hrs followed by cisplatin challenge for 44 hrs by MTT assay; assay type: cell-based
[23] = Cytotoxicity against HEK293 cells expressing wild type ABCG2-482-R2 assessed as inhibition of cell viability at 5 to 25 uM incubated for 2 hrs by MTT assay relative to control; assay type: ADME, cell-based; details: human, read-out: INH
[24] = Cytotoxicity against HEK293 cells harbouring ABCG2-482-T7 mutant assessed as inhibition of cell viability at 5 to 25 uM incubated for 2 hrs by MTT assay relative to control; assay type: ADME, cell-based; details: human, read-out: INH
[25] = Metabolic stability in human liver microsomes assessed as compound remaining at 100 uM incubated for 1 hr by HPLC analysis; assay type: ADME, Microsome; details: read-out: Stability
[26] = target: T2, Broad substrate specificity ATP-binding cassette transporter ABCG2; assay: Inhibition of ABCG2-mediated mitoxantrone efflux in human NCI-H460/MX20 cells assessed as increase in accumulation of [3H]MX at 5 uM incubated for 2 hrs followed by [3H]MX addition further incubated for 2 hrs by liquid scintillation counter relative to control; assay type: cell-based
[27] = target: T2, Broad substrate specificity ATP-binding cassette transporter ABCG2; assay: Reversal of ABCG2-mediated multidrug resistance in human NCI-H460/MX20 cells assessed as potentiation of mitoxantrone-induced cytotoxicity at 2.5 to 5 uM pretreated with compound for 2 hrs followed by mitoxantrone challenge for 44 hrs by MTT assay; assay type: cell-based
[28] = tested on: HEK293; assay: Reversal of ABCG2 482-G2 mutant (unknown origin) expressed in HEK293 cells-mediated multidrug resistance assessed as potentiation of mitoxantrone-induced cytotoxicity at 2.5 to 5 uM pretreated for 2 hrs followed by mitoxantrone addition and measured after 44 hrs by MTT assay; assay type: cell-based; details: Homo sapiens
[29] = target: T2, Broad substrate specificity ATP-binding cassette transporter ABCG2; assay: Reversal of ABCG2-mediated multidrug resistance in human NCI-H460/MX20 cells assessed as potentiation of mitoxantrone-induced cytotoxicity at 10 to 25 uM pretreated with compound for 2 hrs followed by mitoxantrone challenge for 44 hrs by MTT assay; assay type: cell-based
[30] = target: T2, Broad substrate specificity ATP-binding cassette transporter ABCG2; assay: Reversal of ABCG2 (unknown origin) expressed in HEK293 cells-mediated multidrug resistance assessed as potentiation of mitoxantrone-induced cytotoxicity at 10 to 25 uM pretreated for 2 hrs followed by mitoxantrone addition and measured after 44 hrs by MTT assay; assay type: cell-based; details: hek293, 44 h
[31] = species on record: Homo sapiens; assay: Effect on ABCG2 internalization in human NCI-H460/MX20 cells at 25 uM incubated for 72 hrs by immunofluorescence analysis; assay type: functional, cell-based
[32] = target: T2, Broad substrate specificity ATP-binding cassette transporter ABCG2; assay: as §1, with “25” for “10”; assay type: cell-based
[33] = target: T2, Broad substrate specificity ATP-binding cassette transporter ABCG2; assay: Reversal of ABCG2-mediated multidrug resistance in human S1-M1-80 cells assessed as potentiation of mitoxantrone-induced cytotoxicity at 25 uM pretreated with compound for 2 hrs followed by mitoxantrone challenge for 44 hrs by MTT assay; assay type: cell-based
[34] = species on record: Homo sapiens; assay: Effect on ABCG2 expression in human NCI-H460/MX20 cells at 25 uM incubated up to 72 hrs by Western blot analysis; assay type: functional, cell-based
[35] = tested on: HEK293; assay: Reversal of ABCG2 482-G2 mutant (unknown oirigin) expressed in HEK293 cells-mediated multidrug resistance assessed as potentiation of mitoxantrone-induced cytotoxicity at 10 to 25 uM pretreated for 2 hrs followed by mitoxantrone addition and measured after 44 hrs by MTT assay; assay type: cell-based; details: Homo sapiens
[36] = target: T2, Broad substrate specificity ATP-binding cassette transporter ABCG2; assay: Reversal of ABCG2-mediated multidrug resistance in human S1-M1-80 cells assessed as potentiation of doxorubicin-induced cytotoxicity at 25 uM pretreated with compound for 2 hrs followed by doxorubicin challenge for 44 hrs by MTT assay; assay type: cell-based
[37] = target: T1, ABCG2; assay: Competitive substrate activity at ABCG2 (unknown origin) expressed in High Five insect cell vesicle membrane assessed as stimulation of ATPase activity at 0.21 uM by PREDEASY ATPase assay relative to control; details: High Five insect cell vesicle membranes expressing ABCG2
[38] = tested on: HEK293; assay: Reversal of ABCG2 482-T7 mutant (unknown origin) expressed in HEK293 cells-mediated multidrug resistance assessed as potentiation of mitoxantrone-induced cytotoxicity at 10 to 25 uM pretreated for 2 hrs followed by mitoxantrone challenge and measured after 44 hrs by MTT assay; assay type: cell-based; details: Homo sapiens
[39] = target: T2, Broad substrate specificity ATP-binding cassette transporter ABCG2; assay: Inhibition of ABCG2-mediated mitoxantrone efflux in human NCI-H460/MX20 cells assessed as increase in accumulation of [3H]MX at 10 uM incubated for 2 hrs followed by [3H]MX addition and measured after 2 hrs by liquid scintillation counter; assay type: cell-based
[40] = target: T2, Broad substrate specificity ATP-binding cassette transporter ABCG2; assay: Inhibition of ABCG2-mediated mitoxantrone efflux in human NCI-H460/MX20 cells assessed as increase in accumulation of [3H]MX at 25 uM incubated for 2 hrs followed by [3H]MX addition further incubated for 2 hrs by liquid scintillation counter relative to control; assay type: cell-based
[41] = target: T2, Broad substrate specificity ATP-binding cassette transporter ABCG2; assay: Reversal of ABCG2-mediated multidrug resistance in human NCI-H460/MX20 cells assessed as potentiation of cisplatin-induced cytotoxicity at 25 uM pretreated for 2 hrs followed by cisplatin addition and measured after 44 hrs by MTT assay; assay type: cell-based

Row | Compound | IC50 [3] [µM] | Activity [4] | fold change (FC) [5] | IC50 [6] [µM] | cytotoxicity at 2 h, up to 25 µM [9] [%] | cytotoxicity at 2 h, up to 25 µM [12] [%] | cytotoxicity at 2 h, up to 25 µM [14] [%] | cytotoxicity at 2 h, up to 25 µM [15] [%] | cytotoxicity at up to 25 µM [17] [%] | cytotoxicity at 2 h, up to 25 µM [18] [%] | Activity [19] [µM] | inhibition (INH) [20] | Activity [21] [µM] | cytotoxicity at 2 h, up to 25 µM [23] [%] | cytotoxicity at 2 h, up to 25 µM [24] [%] | remaining at 1 h, 100 µM [25] [%] | other results
1 | COc1ccc(C(=O)c2c[nH]c3ccc(OC)cc23)cc1 | 66.9 | Dose-dependent effect | 2.03 | > 100 | < 20 | < 20 | < 20 | < 20 | < 20 | < 20 | 10 | Dose-dependent effect | 10 | < 20 | < 20 | 78 | Emax at 0.75 µM [1]: 50%; Activity [2]: Active; Activity [7]: Active; Activity [8]: inactive; Activity [10]: inactive; inhibition at 10 µM [11]: > 87%; Activity [13]: Active; Activity [16]: Active; Activity [22]: Not Active; fold change (FC) [26]: 2.7; Activity [27]: Active; Activity [28]: Active
2 | COc1ccc(C(=O)c2ccc3[nH]cc(C(=O)c4ccc(OC)cc4)c3c2OC)cc1 | > 100 | Dose-dependent effect | 3.01 | > 100 | < 20 | < 20 | < 20 | < 20 | < 20 | < 20 | 25 | Dose-dependent effect | 25 | < 20 | < 20 | 56 | Activity [29]: Active; Activity [30]: Active; Activity [31]: inactive; inhibition at 25 µM [32]: > 87%; Activity [33]: Active; Activity [34]: inactive; Activity [35]: Active; Activity [36]: Active; Emax at 0.21 µM [37]: 50%; Activity [38]: Active; Activity [39]: Active; fold change (FC) [40]: 3; Activity [41]: Not Active
